Test results from paper PMC1298333, “Biochemical characterization of the Arctic char (Salvelinus alpinus) ovarian progestin membrane receptor” (Reproductive biology and endocrinology : RB&E, 2005).

Columns and labels:
[1] = target: T1, 17,20beta-P membrane receptor (ovarian membrane progestin receptor, mPR); test: competition with [3H]-17, […]β-P, filtration assay; format: binding, Salvelinus alpinus; conditions: 7 nM [3H]-17,20β-P, ovarian membranes, pH 7.4, +4°C, 30 min; read-out: Concentration (nM) causing 50% displacement
T1 construct: gene paqr7; native receptor in crude ovarian plasma membrane fraction (20,000 g pellet)

[2] = target: T1, 17,20beta-P membrane receptor (ovarian membrane progestin receptor, mPR); test: radioligand saturation, filtration assay, Scatchard; format: binding, Salvelinus alpinus; conditions: labelled compound ([3H]-17,20β-P); ovarian membranes, pH 7.4, +4°C, 30 min

Compound | IC50 [1] | Kd [2]
C[C@]12CC[C@H]3[C@@H](CCC4=CC(=O)CC[C@@]43C)[C@@H]1CC[C@@H]2C(=O)CO [11-DOC, 11-deoxycorticosterone] | 132 nM | 
C[C@@H](O)[C@@]1(O)CC[C@H]2[C@@H]3CCC4=CC(=O)CC[C@]4(C)[C@H]3CC[C@@]21C [17,20β-P, 17,20beta-dihydroxy-4-pregnen-3-one] | 1.25 nM | 13.8 ± 1.1 nM
CC(=O)[C@@]1(O)CC[C@H]2[C@@H]3CCC4=CC(=O)CC[C@]4(C)[C@H]3CC[C@@]21C [17α-OH-P, 17α-hydroxyprogesterone] | 69.3 nM | 
C[C@]12CCC(=O)C=C1CC[C@@H]1[C@@H]2CC[C@@]2(C)[C@H]1CC[C@]2(O)[C@H](O)CO [20β-S, 17, 20β, 21-trihydroxy-4-pregnen-3-one] | 145 nM | 
C[C@]12CCC(=O)C=C1CC[C@@H]1[C@@H]2CC[C@@]2(C)[C@H]1CC[C@]2(O)C(=O)CO [DC, 11-deoxycortisol] | 207 nM | 
C[C@]12CC[C@@H]3c4ccc(O)cc4CC[C@H]3[C@@H]1CC[C@@H]2O [E2, 17β-estradiol] | 37.9 nM | 
C[C@]12CCC(=O)C=C1CC[C@@H]1[C@@H]2[C@@H](O)C[C@@]2(C)[C@H]1CC[C@]2(O)C(=O)CO [F, cortisol] | 14400 nM | 
CC(C)C(=O)Nc1ccc([N+](=O)[O-])c(C(F)(F)F)c1 [Flutamide] | 256 nM | 
CC(=O)[C@H]1CC[C@H]2[C@@H]3CCC4=CC(=O)CC[C@]4(C)[C@H]3CC[C@]12C [P4, progesterone] | 52.6 nM | 
C[C@]12CC[C@H]3[C@@H](CCC4=CC(=O)CC[C@@]43C)[C@@H]1CC[C@@H]2O [T, testosterone] | 18300 nM | 
CN(C)c1ccc([C@H]2C[C@]3(C)[C@@H](CC[C@]3(O)CCCO)[C@@H]3CCC4=CC(=O)CCC4=C32)cc1 [ZK 98299] | 12900 nM | 
Clc1ccc(C(c2ccccc2Cl)C(Cl)Cl)cc1 (stereo not drawn) [o,p'-DDD] | 549 nM | 
Clc1ccc(C(c2ccccc2Cl)C(Cl)(Cl)Cl)cc1 (stereo not drawn) [o,p'-DDT] | 378 nM | 
ZK 112992 | 1180 nM | 
